The results in this text go back to PubChem BioAssay (NCI).

Test systems include SN12C renal; HCT-116 colon; 786-0 renal; HCT-15 colon; DU-145 prostate; RPMI-8226 leukemia; SNB-19 CNS; LOX IMVI melanoma; M14 melanoma; SR leukemia.
Assay in all cases: inhibition of tumour cell growth, NCI panel, 48 h

Values joined by “and” are separate entries in the source; they are usually repeats but may differ in a detail not shown here. Equal values may be shown once.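 Interpolation was linear, between the two tested concentrations surrounding the appropriate level; five concentrations were tested over 48 hours in 96-well plates. GI50 = concentration required for 50% inhibition of growth. TGI: concentration producing complete growth inhibition.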

As to `O=C1Cc2c(-c3ccccc3)cc(-c3ccccc3)nc2-c2ccccc2N1`, the TGI was 30.8 µM in the experiment with SN12C renal; 5.37 µM in the experiment on HCT-116 colon; 72.5 µM with 786-0 renal; 4.4 µM in the experiment on HCT-15 colon; 20.3 µM in the experiment with DU-145 prostate; > 100 µM in the experiment with RPMI-8226 leukemia. Further, the TGI is 8.76 µM in the experiment on SNB-19 CNS, > 100 µM in the experiment with LOX IMVI melanoma and 17.5 µM in the experiment with M14 melanoma. Besides, in the experiment with 786-0 renal, the GI50 is 4140 nM.

As for `COc1ccc(C(=O)/C=C/c2sc(Cl)nc2Cl)cc1`, the GI50 in the experiment on SN12C renal was 408 nM; in the experiment on HCT-116 colon, 490 nM; in the experiment on 786-0 renal, 1940 nM; in the experiment with HCT-15 colon, 416 nM; in the experiment on DU-145 prostate it was 1900 nM; with RPMI-8226 leukemia, 1360 nM. For the same compound, the GI50 in the experiment with SNB-19 CNS was 1.99 µM; with LOX IMVI melanoma, 330 nM; in the experiment with M14 melanoma, 466 nM. For the same compound, the TGI with SN12C renal came out at 3.19 µM; in the experiment on HCT-116 colon it was 1.84 µM; in the experiment with 786-0 renal, 4.94 µM; in the experiment on HCT-15 colon, 2.14 µM; with DU-145 prostate it was 3.55 µM; in the experiment with RPMI-8226 leukemia, 4.77 µM. Moreover, the TGI in the experiment on SNB-19 CNS is 4.25 µM; with LOX IMVI melanoma, 1.36 µM; with M14 melanoma it was 2.96 µM.

As for `CC(C)C[C@H](CC(=O)O)C(=O)N[C@@H](Cc1c[nH]c2ccccc12)C(=O)N[C@@H](C)c1ccccc1`, the GI50 in the experiment on SN12C renal was > 25000 nM; in the experiment on HCT-116 colon, > 25000 nM; with 786-0 renal it was > 25000 nM; in the experiment with HCT-15 colon, > 25000 nM; in the experiment on DU-145 prostate, > 25000 nM; in the experiment on SNB-19 CNS, > 25 µM. The GI50 in the experiment on LOX IMVI melanoma and in the experiment with M14 melanoma was > 25000 nM each time. In addition, the TGI in the experiment with SN12C renal, with HCT-116 colon, with 786-0 renal, in the experiment on HCT-15 colon, in the experiment with DU-145 prostate and in the experiment with SNB-19 CNS was > 25 µM each time. Besides, the TGI in the experiment with LOX IMVI melanoma and with M14 melanoma was > 25 µM in each case.

In the case of `CCn1cnc(C[C@H](NC(=O)[C@H](CCCCNC(=O)Nc2cc(C(F)(F)F)cc(C(F)(F)F)c2)NC(=O)Nc2cc(C(F)(F)F)cc(C(F)(F)F)c2)C(=O)OC)c1`, the GI50 with SN12C renal was 5690 nM; in the experiment with HCT-116 colon, 3870 nM; in the experiment on 786-0 renal it was 8780 nM; in the experiment on HCT-15 colon, > 10000 nM; in the experiment on DU-145 prostate it was 5490 nM; with RPMI-8226 leukemia it was 3080 nM. Moreover, the GI50 in the experiment on SNB-19 CNS was 5.1 µM; with LOX IMVI melanoma, 3560 nM; in the experiment on M14 melanoma, 6290 nM. For the same compound, the TGI with SN12C renal, with HCT-116 colon, in the experiment with 786-0 renal, in the experiment with HCT-15 colon, with DU-145 prostate and with RPMI-8226 leukemia was > 10 µM throughout. In addition, the TGI in the experiment on SNB-19 CNS, in the experiment with LOX IMVI melanoma and with M14 melanoma was > 10 µM throughout.

As for `Cc1nc2ccccn2c1NC(=O)NN1C(=O)CSC1c1ccc(Cl)cc1` (stereo not drawn), the GI50 with SN12C renal, with HCT-116 colon, in the experiment with 786-0 renal, with HCT-15 colon, with DU-145 prostate and in the experiment on RPMI-8226 leukemia was > 100000 nM throughout. For the same compound, the GI50 in the experiment with SNB-19 CNS is > 100 µM; in the experiment with LOX IMVI melanoma it was > 100000 nM; in the experiment with M14 melanoma, > 100000 nM. Also, the TGI with SN12C renal, with HCT-116 colon, with 786-0 renal, in the experiment on HCT-15 colon, in the experiment on DU-145 prostate and in the experiment on RPMI-8226 leukemia was > 100 µM throughout. Besides, the TGI in the experiment on SNB-19 CNS, with LOX IMVI melanoma and in the experiment with M14 melanoma was > 100 µM throughout.

As for `Clc1ccc(-c2cc(-c3ccccc3)nc(N3CCN(CCCNc4ccnc5cc(Cl)ccc45)CC3)n2)cc1`, the GI50 in the experiment on SN12C renal is 1420 nM; with HCT-116 colon, 934 nM; with 786-0 renal, 1470 nM; with HCT-15 colon it was 779 nM; in the experiment with DU-145 prostate, 1520 nM; in the experiment with RPMI-8226 leukemia, 1740 nM. The values for the GI50 with LOX IMVI melanoma and in the experiment with M14 melanoma were 1750 nM and 1870 nM, respectively. Further, the TGI is 2.84 µM in the experiment on SN12C renal; 2.22 µM in the experiment with HCT-116 colon; 2.84 µM in the experiment with 786-0 renal; 2.48 µM in the experiment on HCT-15 colon; 2.94 µM in the experiment on DU-145 prostate; 4.41 µM with RPMI-8226 leukemia. The TGI was 3.19 µM in the experiment with LOX IMVI melanoma and 3.53 µM in the experiment with M14 melanoma.

As to `NC(Cc1ccccc1)C(=O)OCN1C(=O)C2C3C=CC(C2C1=O)C1C2C(=O)N(COC(=O)C(N)Cc4ccccc4)C(=O)C2C31` (stereo not drawn), the TGI with SN12C renal was 52.7 µM and 43.9 µM; in the experiment with HCT-116 colon it was 33.9 µM and 46.2 µM; with 786-0 renal, 38.2 µM and 38 µM; in the experiment on HCT-15 colon, 35.2 µM and 35.3 µM; with RPMI-8226 leukemia, 56.4 µM and 44.7 µM; in the experiment on SNB-19 CNS it was > 100 µM. Further, the TGI with LOX IMVI melanoma is 41.4 µM and 36.8 µM; in the experiment with SR leukemia it was 50.3 µM; in the experiment with M14 melanoma it was 35 µM and 33.9 µM.

Take `CCc1cccc(C(C)C)c1NC(=O)CC1Sc2ccccc2NC1=O` (stereo not drawn): the TGI in the experiment with SN12C renal, in the experiment with HCT-116 colon, with 786-0 renal, in the experiment with HCT-15 colon, in the experiment with RPMI-8226 leukemia and in the experiment on SNB-19 CNS was > 100 µM each time. The TGI is > 100 µM in the experiment with LOX IMVI melanoma, 94.4 µM in the experiment with SR leukemia and > 100 µM in the experiment with M14 melanoma.

As for `CNC(=O)c1cc(Oc2ccc3nc(NC(=O)Nc4ccc(CN5CCOCC5)c(C(F)(F)F)c4)sc3c2)ccn1`, the GI50 is 2580 nM in the experiment with SN12C renal; 1780 nM in the experiment on HCT-116 colon; 2220 nM with 786-0 renal; 2080 nM in the experiment on HCT-15 colon; 2730 nM in the experiment with DU-145 prostate; 1720 nM with RPMI-8226 leukemia. In addition, the GI50 was 3.82 µM with SNB-19 CNS, 1820 nM in the experiment with LOX IMVI melanoma and 2480 nM in the experiment on M14 melanoma. The TGI in the experiment on SN12C renal is 9.36 µM; in the experiment on HCT-116 colon it was 3.62 µM; with 786-0 renal, 4.32 µM; in the experiment with HCT-15 colon, 7.09 µM; with DU-145 prostate, 9.4 µM; in the experiment on RPMI-8226 leukemia, 4.49 µM. Further, the TGI in the experiment with SNB-19 CNS amounted to 16.4 µM; in the experiment on LOX IMVI melanoma, 4.34 µM; with M14 melanoma, 6.53 µM.

Turning to `CCCCCC/C=C/C#CCCCCCCCC(=O)O`, the TGI in the experiment on SN12C renal, with HCT-116 colon, in the experiment on 786-0 renal, with HCT-15 colon, in the experiment on DU-145 prostate and in the experiment on RPMI-8226 leukemia was > 100 µM in each case. Also, the TGI in the experiment on SNB-19 CNS, in the experiment with LOX IMVI melanoma and with M14 melanoma was > 100 µM in each case.

Regarding `C/C(=N\Nc1ccccc1)c1sc(-c2nc(C)c(/C(C)=N/Nc3ccccc3)s2)nc1C`, the TGI with SN12C renal was > 100 µM; in the experiment on HCT-116 colon, > 100 µM; in the experiment on 786-0 renal, > 83.1 µM; in the experiment with HCT-15 colon it was > 20.2 µM; in the experiment on RPMI-8226 leukemia it was > 100 µM; with SNB-19 CNS, > 100 µM. Further, the TGI in the experiment with LOX IMVI melanoma was > 100 µM; in the experiment with SR leukemia it was > 100 µM; in the experiment with M14 melanoma, 25 µM.

As for `O/N=C1/CCC/C1=C\c1ccccc1`, the TGI in the experiment with SN12C renal, with HCT-116 colon, with 786-0 renal, with HCT-15 colon, with RPMI-8226 leukemia and in the experiment with SNB-19 CNS was > 100 µM throughout. The TGI in the experiment with LOX IMVI melanoma, in the experiment with SR leukemia and in the experiment on M14 melanoma was > 100 µM in each case.

Consider `C[C@@H](C1CC[C@H]2[C@@H]3[C@@H]4O[C@@H]4[C@@]4(O)CC=CC(=O)[C@]4(C)[C@H]3C[C@H](O)[C@]12C)[C@H]1C[C@]2(C)O[C@]2(C)C(=O)O1` (stereo partly drawn), for which the TGI in the experiment on SN12C renal, in the experiment on HCT-116 colon, with 786-0 renal, in the experiment with HCT-15 colon, with DU-145 prostate and with RPMI-8226 leukemia was > 100 µM in each case. Also, the TGI in the experiment on SNB-19 CNS, in the experiment with LOX IMVI melanoma and in the experiment on M14 melanoma was > 100 µM each time.

For the compound `CCCCCCCCCCC(=O)CCCCCCC(=O)O`, the TGI with SN12C renal is 75.2 µM; with HCT-116 colon, 26.7 µM; in the experiment on 786-0 renal, 39.6 µM; in the experiment on HCT-15 colon, 28 µM; with RPMI-8226 leukemia, 32.3 µM; in the experiment with SNB-19 CNS, > 100 µM. The TGI with LOX IMVI melanoma was found to be 31.4 µM; in the experiment with SR leukemia, 44.2 µM; in the experiment with M14 melanoma, 47.9 µM.

On to `COc1ccc2[nH]c(Cl)c(/C=C3/C(=O)Nc4ccccc43)c2c1`, for which the GI50 with SN12C renal is 339 nM; with HCT-116 colon it was 238 nM; in the experiment with 786-0 renal, 282 nM; with HCT-15 colon it was 611 nM; in the experiment with DU-145 prostate, 279 nM; with RPMI-8226 leukemia, 213 nM. Moreover, the GI50 was 0.852 µM with SNB-19 CNS, 345 nM in the experiment on LOX IMVI melanoma and 254 nM in the experiment on M14 melanoma. In addition, the TGI worked out at 14.7 µM with SN12C renal; 1.17 µM in the experiment with HCT-116 colon; 0.937 µM in the experiment with 786-0 renal; 3.36 µM in the experiment with HCT-15 colon; 2.35 µM in the experiment with DU-145 prostate; 0.591 µM in the experiment with RPMI-8226 leukemia. In addition, the TGI came out at 11.3 µM with LOX IMVI melanoma and 1.23 µM in the experiment on M14 melanoma.

For the compound `O=C1/C(=C/c2cccnc2)SC(=S)N1Cc1ccco1`, the TGI with SN12C renal is 45 µM; in the experiment on HCT-116 colon, > 24.9 µM; in the experiment with 786-0 renal it was > 40.8 µM; with HCT-15 colon, > 100 µM; in the experiment with DU-145 prostate it was 9.22 µM; in the experiment with RPMI-8226 leukemia it was > 23.7 µM. The TGI in the experiment with SNB-19 CNS, in the experiment on LOX IMVI melanoma and in the experiment on M14 melanoma was > 100 µM in each case.
